This experiment concerns Candida albicans ATCC 90028. As to the kind of experiment: MIC microdilution assay. Type of experiment: cell-based. The conditions noted are these: Candida albicans, ATCC90028; C. albicans ATCC 90028; RPMI media; 35±2° C. 24 to 48 hours; two values given; read-out: MIC. The protocol: Strain numbers starting with “ATCC” were acquired from the American Type Culture Collection (Manassas, VA), while strain numbers starting with “CDC” were acquired from the Centers for Disease Control and Prevention (Atlanta, GA). All strains were maintained as −80° C. frozen glycerol stocks. S. aureus and P. aeruginosa were grown overnight on Tryptic Soy Agar (TSA) plates at 35±2° C., ambient atmosphere, while S. pyogenes was grown overnight on TSA+5% defibrinated sheep blood at 35±2° C., 5% CO2. All fungal species (i.e. C. albicans, C. auris and C. herbarum) were grown on Sabouraud Dextrose Agar (SDA) plates. C. herbarum was grown at 25±2° C. for 5 to 7 days, while all other fungal strains were grown at 35±2° C. overnight.
Test articles Compound 2 (batch #2G13A0.368) and Compound 23 (batch #2G17A0.372) were received and stored at 4° C. The antibiotic Tobramycin and antifungal Amphotericin B were used as quality control (QC) compounds for the MIC assay. Stock solutions of 3.2 mg/mL Tobramycin (Sigma-Aldrich, cat #T1783-500MG) and 3.2 mg/mL Amphotericin B (CP Lab Chemicals, cat #TOK-A007-1G) were prepared in sterile ultrapure water.
For bacteria strains, a few colonies of each strain were collected with a sterile swab and used to make a McFarland 0.5 standard solution (approximately 1×10^8 CFU/mL) in sterile PBS. The McFarland was then diluted 1:180 in Cation Adjusted Muller-Hinton Broth (CAMHB) for S. aureus and P. aeruginosa, and in […]+5% defibrinated sheep blood for S. pyogenes. 90 μL of this inoculum was combined with 10 μL of the 10× test article in a 96-well plate for a final concentration of 1×.
For the yeasts C. albicans and C. auris, a McFarland 0.5 standard solution in sterile PBS was similarly prepared (approximately 1×10^6 CFU/mL) and was subsequently diluted 1:180 in RPMI 1640 media buffered with 0.165 M MOPS at pH 7.0 (herein referred to as “RPMI media”). 90 μL of the Candida inoculum was combined with 10 μL of the 10× test article in a 96-well plate for a final concentration of 1×.
All bacterial-strain MIC 96-well plates were incubated at 35±2° C. for 18 to 20 hours, while all Candida MIC 96-well plates were incubated at 35±2° C. for 24 to 48 hours. C. herbarum MIC 96-well plates were incubated at 25±2° C. for 3 to 5 days, until growth was visible in the growth control wells. After incubation, the 96-well plates were examined visually and on a spectrophotometer at absorbance OD650. MIC is defined as the lowest concentration of a compound in which no visible growth is observed.

These results are taken from US12264170B2, “Antimicrobial organosilanes” (TOPIKOS SCIENTIFIC, INC., priority 2019, dated 2025).

Structures are written as SMILES.

`NC[C@H]1O[C@H](O[C@H]2[C@H](O)[C@@H](O[C@H]3O[C@H](CO)[C@@H](O)[C@H](N)[C@H]3O)[C@H](N)C[C@@H]2N)[C@H](N)C[C@@H]1O` [Tobramycin]: the MIC was more than 32 µg/mL.
